Key:
[1] = biological target: VIM-2 (Escherichia coli, UniProt Q5U7L7); assay: biochemical; conditions: CCF2-FA fluorescence assay; read-out: VIM2 IC50
[2] = biological target: VIM-1 (Pseudomonas aeruginosa (strain ATCC 15692 / DSM 22644 / CIP 104116 / JCM 14847 / LMG 12228 / 1C / PRS 101 / PAO1), UniProt A0A0F7KYQ8); assay: biochemical; conditions: CCF2-FA fluorescence assay, 2 hours at 25° C.; read-out: VIM1 IC50
How it was run: (§1)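 Enzyme (NDM-1 1 pM, IMP-1 2 pM, VIM-1 30 pM final) and 1.25 μM CCF2-FA incubated with inhibitor (20 to 0.00063 μM) for 2 h at 25° C in 100 mM KH2PO4 pH 7, 0.005% Tween-20, 10 μM ZnSO4. Fluorescence read at ex 405/em 460 nm; IC50 by 4-parameter fit.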

[3] = biological target: IMP-1 (Serratia marcescens, UniProt P52699); assay: biochemical; conditions: CCF2-FA fluorescence assay, 2 hours at 25° C.; read-out: IMP1 IC50
Chain of IMP-1 (P52699 whole entry, looked up, species assumed): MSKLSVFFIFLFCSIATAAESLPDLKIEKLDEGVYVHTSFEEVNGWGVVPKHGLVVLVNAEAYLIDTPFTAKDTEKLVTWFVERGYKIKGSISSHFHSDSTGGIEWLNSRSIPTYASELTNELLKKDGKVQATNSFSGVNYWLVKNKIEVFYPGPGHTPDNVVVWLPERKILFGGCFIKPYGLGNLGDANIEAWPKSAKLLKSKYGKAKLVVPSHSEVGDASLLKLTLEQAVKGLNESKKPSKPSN
How it was run: as §1

[4] = test system: Serratia marcescens expressing IMP-1 (CL5741); format: cell-based; conditions: with imipenem 1 μg/ml; 95% inhibition of bacterial growth
How it was run: (§2)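 MITC95 denotes the minimal test-compound level that, combined with 1 μg/ml imipenem, blocks 95% of bacterial growth, measured by absorbance. Overnight-grown clinical isolates were diluted 1:100 in CAMHB and incubated with both agents at 35° C for 22–24 h.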

[5] = test system: Escherichia coli expressing NDM-1 (CLB30016); format: cell-based; conditions: with imipenem 1 μg/ml; 95% inhibition of bacterial growth
How it was run: as §2

[6] = test system: Klebsiella pneumoniae expressing VIM-1 (IHMA599644); format: cell-based; conditions: with imipenem 1 μg/ml; 95% inhibition of bacterial growth
How it was run: as §2

[7] = biological target: NDM-1 (Klebsiella pneumoniae, UniProt C7C422); assay: biochemical; format: biochemical; conditions: CCF2-FA fluorescence assay, 2 hours at 25° C.
Chain of NDM-1 (C7C422 whole entry, looked up, species assumed): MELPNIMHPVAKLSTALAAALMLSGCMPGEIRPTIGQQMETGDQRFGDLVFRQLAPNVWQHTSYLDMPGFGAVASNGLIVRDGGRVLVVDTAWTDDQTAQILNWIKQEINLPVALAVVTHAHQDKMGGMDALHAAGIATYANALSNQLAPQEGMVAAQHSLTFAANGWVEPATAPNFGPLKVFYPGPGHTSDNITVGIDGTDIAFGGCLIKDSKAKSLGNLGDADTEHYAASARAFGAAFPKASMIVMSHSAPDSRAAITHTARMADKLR
How it was run: as §1

[8] = test system: P. aeruginosa MB9798 (efflux+, IMP-1 plasmid); conditions: for MB9798 MITC95 P. aeruginosa uM Efflux WT: efflux + (MB9798) strain, imipenem at 2 μg/mL, in the presence of a class A, C, D serine β-lactamase inhibitor closely related to relebactam; for Efflux ratio: fold difference between efflux+ (MB9798) and efflux− (MB9799) strains
How it was run: (§3)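 PAO1-derived isogenic pair (oprD+, inducible AmpC), efflux+ MB5919 or efflux− MB5890 parent, carrying an electroporated IMP-1 plasmid from a clinical isolate. Microbroth MIC with fixed imipenem and/or ceftazidime (usually CLSI breakpoint) plus fixed class A/C inhibitor; MBL inhibitor serially titrated, concentration restoring susceptibility recorded.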

[9] = test system: P. aeruginosa MB9799 (efflux-, IMP-1 plasmid); format: cell-based, Pseudomonas aeruginosa; conditions: efflux − (MB9799) strain; imipenem at 2 μg/mL; in the presence of a class A, C, D serine β-lactamase inhibitor closely related to relebactam
How it was run: as §3

SMILES: CS(=O)(=O)CCN1CCN(c2ccc(S(=O)(=O)NC[C@H](O)CN)c(S(N)(=O)=O)c2-c2nn[nH]n2)CC1 [Example 117, (R)—N1-(3-amino-2-hydroxypropyl)-4-(4-(2-(methylsulfonyl)ethyl)piperazin-1-yl)-3-(2H-tetrazol-5-yl)benzene-1,2-disulfonamide]
- IC50 [1]: 2.28 nM
- IC50 [2]: 2.58 nM
- IC50 [3]: 0.55 nM
- CL5741 S. marcescens MITC95 IMP [4]: 0.78 µM
- CLB30016 E. coli MITC95 NDM [5]: 3.13 µM
- IHMA599644 K. pneumoniae MITC95 VIM [6]: 6.25 µM
- IC50 [7]: 0.94 nM
- MB9798 MITC95 P. aeruginosa uM Efflux WT [8]: 12.50 µM
- Efflux ratio [8]: 4.00
- MB9799 MITC95 P. aeruginosa uM Efflux Mutant [9]: 3.13 µM

SMILES: CN(C)[C@H]1CCN(c2ccc(S(=O)(=O)N[C@@H]3CCNC3)c(S(N)(=O)=O)c2-c2nnn[nH]2)C1 [Example 67, 4-[(3S)-3-(dimethylamino)pyrrolidin-1-yl]-N1-[(3R)-pyrrolidin-3-yl]-3-(1H-tetrazol-5-yl)benzene-1,2-disulfonamide]
- IC50 [1]: 18.5 nM
- IC50 [2]: 4.32 nM
- IC50 [3]: 60.7 nM
- CL5741 S. marcescens MITC95 IMP [4]: 3.13 µM
- CLB30016 E. coli MITC95 NDM [5]: 1.56 µM
- IHMA599644 K. pneumoniae MITC95 VIM [6]: 1.56 µM
- IC50 [7]: 85 nM
- MB9798 MITC95 P. aeruginosa uM Efflux WT [8]: 12.50 µM
- Efflux ratio [8]: 8.00
- MB9799 MITC95 P. aeruginosa uM Efflux Mutant [9]: 1.56 µM

SMILES: NCCNS(=O)(=O)c1ccc(N2CCC(O)(CN)CC2)c(-c2nn[nH]n2)c1S(N)(=O)=O [Example 17]
- IC50 [1]: 64.6 nM
- IC50 [2]: 15.1 nM
- IC50 [3]: 26.9 nM
- CL5741 S. marcescens MITC95 IMP [4]: 0.78 µM
- CLB30016 E. coli MITC95 NDM [5]: 0.78 µM
- IHMA599644 K. pneumoniae MITC95 VIM [6]: 1.56 µM
- IC50 [7]: 17 nM
- MB9798 MITC95 P. aeruginosa uM Efflux WT [8]: 1.56 µM
- Efflux ratio [8]: 2.00
- MB9799 MITC95 P. aeruginosa uM Efflux Mutant [9]: 0.78 µM

SMILES: NC[C@@H](O)CNS(=O)(=O)c1ccc(N2CC[C@@H](N)C2)c(-c2nn[nH]n2)c1S(N)(=O)=O [Example 125, N1-((R)-3-amino-2-hydroxypropyl)-4-((R)-3-aminopyrrolidin-1-yl)-3-(2H-tetrazol-5-yl)benzene-1,2-disulfonamide]
- IC50 [1]: 53.9 nM
- IC50 [2]: 10.9 nM
- IC50 [3]: 61.4 nM
- CL5741 S. marcescens MITC95 IMP [4]: 3.13 µM
- CLB30016 E. coli MITC95 NDM [5]: 0.78 µM
- IHMA599644 K. pneumoniae MITC95 VIM [6]: 1.56 µM
- IC50 [7]: 88.1 nM
- MB9798 MITC95 P. aeruginosa uM Efflux WT [8]: 6.25 µM
- Efflux ratio [8]: 2.00
- MB9799 MITC95 P. aeruginosa uM Efflux Mutant [9]: 3.13 µM

SMILES: NCCNS(=O)(=O)C1CCN(c2ccc(S(=O)(=O)N[C@@H](CN)CO)c(S(N)(=O)=O)c2-c2nn[nH]n2)CC1 [Example 202, (S)-N1-(1-amino-3-hydroxypropan-2-yl)-4-(4-(N-(2-aminoethyl)sulfamoyl)piperidin-1-yl)-3-(2H-tetrazol-5-yl)benzene-1,2-disulfonamide]
- IC50 [1]: 1.6 nM
- IC50 [2]: 0.09 nM
- IC50 [3]: 0.58 nM
- CL5741 S. marcescens MITC95 IMP [4]: 1.56 µM
- CLB30016 E. coli MITC95 NDM [5]: 0.78 µM
- IHMA599644 K. pneumoniae MITC95 VIM [6]: 1.56 µM
- IC50 [7]: 0.44 nM
- MB9798 MITC95 P. aeruginosa uM Efflux WT [8]: 1.56 µM
- Efflux ratio [8]: 1.00
- MB9799 MITC95 P. aeruginosa uM Efflux Mutant [9]: 1.56 µM

SMILES: NCC1CCN(c2ccc(S(=O)(=O)C[C@H](O)CN)c(S(N)(=O)=O)c2-c2nn[nH]n2)CC1 [Example 128, (R)-6-((3-amino-2-hydroxypropyl)sulfonyl)-3-(4-(aminomethyl)piperidin-1-yl)-2-(2H-tetrazol-5-yl)benzenesulfonamide]
- IC50 [1]: 13.3 nM
- IC50 [2]: 0.94 nM
- IC50 [3]: 3.65 nM
- CL5741 S. marcescens MITC95 IMP [4]: 0.78 µM
- CLB30016 E. coli MITC95 NDM [5]: 0.39 µM
- IHMA599644 K. pneumoniae MITC95 VIM [6]: 0.78 µM
- IC50 [7]: 8.71 nM
- MB9798 MITC95 P. aeruginosa uM Efflux WT [8]: 0.78 µM
- Efflux ratio [8]: 2.00
- MB9799 MITC95 P. aeruginosa uM Efflux Mutant [9]: 0.39 µM

SMILES: NC[C@@H](O)CNS(=O)(=O)c1ccc(N2CCN(C(CO)CO)CC2)c(-c2nn[nH]n2)c1S(N)(=O)=O [Example 160, (R)-N1-(3-amino-2-hydroxypropyl)-4-(4-(1,3-dihydroxypropan-2-yl)piperazin-1-yl)-3-(2H-tetrazol-5-yl)benzene-1,2-disulfonamide]
- IC50 [1]: 5.49 nM
- IC50 [2]: 1.34 nM
- IC50 [3]: 1.2 nM
- CL5741 S. marcescens MITC95 IMP [4]: 0.20 µM
- CLB30016 E. coli MITC95 NDM [5]: 0.78 µM
- IHMA599644 K. pneumoniae MITC95 VIM [6]: 1.56 µM
- IC50 [7]: 1.16 nM
- MB9798 MITC95 P. aeruginosa uM Efflux WT [8]: 1.56 µM
- Efflux ratio [8]: 1.00
- MB9799 MITC95 P. aeruginosa uM Efflux Mutant [9]: 1.56 µM

SMILES: NC[C@@H](O)CNS(=O)(=O)c1ccc(N2CC[C@@H](N)[C@H](F)C2)c(-c2nn[nH]n2)c1S(N)(=O)=O [Example 2]
- IC50 [1]: 4.04 nM
- IC50 [2]: 0.17 nM
- IC50 [3]: 3.37 nM
- CL5741 S. marcescens MITC95 IMP [4]: 0.78 µM
- CLB30016 E. coli MITC95 NDM [5]: 0.20 µM
- IHMA599644 K. pneumoniae MITC95 VIM [6]: 0.78 µM
- IC50 [7]: 6.51 nM
- MB9798 MITC95 P. aeruginosa uM Efflux WT [8]: 0.78 µM
- Efflux ratio [8]: 1.00
- MB9799 MITC95 P. aeruginosa uM Efflux Mutant [9]: 0.78 µM

SMILES: C[C@H](CN)NS(=O)(=O)c1ccc(N2CC[C@@H](N)[C@@H](F)C2)c(-c2nn[nH]n2)c1S(N)(=O)=O (racemic) [Example 5]
- IC50 [1]: 2.54 nM
- IC50 [2]: 0.13 nM
- IC50 [3]: 1.81 nM
- CL5741 S. marcescens MITC95 IMP [4]: 0.20 µM
- CLB30016 E. coli MITC95 NDM [5]: 0.10 µM
- IHMA599644 K. pneumoniae MITC95 VIM [6]: 0.78 µM
- IC50 [7]: 0.96 nM
- MB9798 MITC95 P. aeruginosa uM Efflux WT [8]: 0.78 µM
- Efflux ratio [8]: 2.00
- MB9799 MITC95 P. aeruginosa uM Efflux Mutant [9]: 0.39 µM

SMILES: CC1(CN)CCN(c2ccc(S(=O)(=O)NC[C@H](O)CN)c(S(N)(=O)=O)c2-c2nn[nH]n2)CC1 [Example 138, (R)-N1-(3-amino-2-hydroxypropyl)-4-(4-(aminomethyl)-4-methylpiperidin-1-yl)-3-(2H-tetrazol-5-yl)benzene-1,2-disulfonamide]
- IC50 [1]: 10.3 nM
- IC50 [2]: 0.71 nM
- IC50 [3]: 6.91 nM
- CL5741 S. marcescens MITC95 IMP [4]: 1.56 µM
- CLB30016 E. coli MITC95 NDM [5]: 1.56 µM
- IHMA599644 K. pneumoniae MITC95 VIM [6]: 1.56 µM
- IC50 [7]: 2.47 nM
- MB9798 MITC95 P. aeruginosa uM Efflux WT [8]: 1.56 µM
- Efflux ratio [8]: 2.00
- MB9799 MITC95 P. aeruginosa uM Efflux Mutant [9]: 0.78 µM

SMILES: NCCC1CCCN(c2ccc(S(=O)(=O)NC[C@H](O)CN)c(S(N)(=O)=O)c2-c2nn[nH]n2)CC1 (stereo partly drawn) [Example 140, N1-((R)-3-amino-2-hydroxypropyl)-4-(4-(2-aminoethyl)azepan-1-yl)-3-(2H-tetrazol-5-yl)benzene-1,2-disulfonamide bis(2,2,2-trifluoroacetate)]
- IC50 [1]: 1.87 nM
- IC50 [2]: 0.1 nM
- IC50 [3]: 6.34 nM
- CL5741 S. marcescens MITC95 IMP [4]: 0.78 µM
- CLB30016 E. coli MITC95 NDM [5]: 1.56 µM
- IHMA599644 K. pneumoniae MITC95 VIM [6]: 0.78 µM
- IC50 [7]: 3.75 nM
- MB9798 MITC95 P. aeruginosa uM Efflux WT [8]: 1.56 µM
- Efflux ratio [8]: 2.00
- MB9799 MITC95 P. aeruginosa uM Efflux Mutant [9]: 0.78 µM

SMILES: NC[C@@H](O)CNS(=O)(=O)c1ccc(NC2CCC(N)C2)c(-c2nn[nH]n2)c1S(N)(=O)=O (stereo partly drawn) [compound 184, N1-((R)-3-amino-2-hydroxypropyl)-4-((3-aminocyclopentyl)amino)-3-(2H-tetrazol-5-yl)benzene-1,2-disulfonamide]
- IC50 [1]: 44.4 nM
- IC50 [2]: 4.61 nM
- IC50 [3]: 39.4 nM
- CL5741 S. marcescens MITC95 IMP [4]: 1.56 µM
- CLB30016 E. coli MITC95 NDM [5]: 0.78 µM
- IHMA599644 K. pneumoniae MITC95 VIM [6]: 1.56 µM
- IC50 [7]: 19.4 nM
- MB9798 MITC95 P. aeruginosa uM Efflux WT [8]: 6.25 µM
- Efflux ratio [8]: 2.00
- MB9799 MITC95 P. aeruginosa uM Efflux Mutant [9]: 3.13 µM

From US11207312B2, “Metallo-beta-lactamase inhibitors and methods of use thereof” (priority 2017, dated 2021)
